Values of other authors, collected in US20050281746A1, “Anticoagulant contrast media” (priority 2004, published 2005).

Columns and labels:
[1] = X-ray contrast agents grouped by ionicity and benzene rings
[2] = X-ray contrast agents grouped by structure; classes High / Low / Iso
[3] = X-ray contrast agents grouped by structure

| Compound | Adverse effects [1] | Osmolality (mOsm/kg) [2] | Viscosity (cps) [3] [cps] |
| --- | --- | --- | --- |
| CC(=O)N(CC(O)CO)c1c(I)c(C(=O)NCC(O)CO)c(I)c(C(=O)NCC(O)CO)c1I (centres unmarked) [Iohexol] | Thrombotic | – | – |
| COCC(=O)Nc1c(I)c(C(=O)NCC(O)CO)c(I)c(C(=O)N(C)CC(O)CO)c1I (centres unmarked) [Iopromide] | Thrombotic | – | – |
| CN(C(=O)CO)c1c(I)c(C(=O)NCC(O)CO)c(I)c(C(=O)NCC(O)CO)c1I (centres unmarked) [Iomerpol] | Thrombotic | – | – |
| C[C@H](O)C(=O)Nc1c(I)c(C(=O)NC(CO)CO)c(I)c(C(=O)NC(CO)CO)c1I [Iopamidol] | Thrombotic | – | – |
| COCC(O)CN(C(C)=O)c1c(I)c(C(=O)NCC(O)CO)c(I)c(C(=O)NCC(O)CO)c1I (centres unmarked) [Iopentol] | Thrombotic | – | – |
| CC(=O)N(CC(O)CN(C(C)=O)c1c(I)c(C(=O)NCC(O)CO)c(I)c(C(=O)NCC(O)CO)c1I)c1c(I)c(C(=O)NCC(O)CO)c(I)c(C(=O)NCC(O)CO)c1I (centres unmarked) [Iodixanol] | Thrombotic | (280) mOsm/kg | 26 |
